Common to all, as to assay type: binding
Assay [1] deals with T1, HDAC2 (Homo sapiens (Human), UniProt Q92769). The assay can be described thus: Reporter displacement assay (HDAC2). Conditions: reporter probe displacement, Cheng Prusoff. As for the experimental part:
HDAC2 containing a C-terminal HIS-Tag (Proteros) and fluorescently-labeled anti-HIS-antibody are diluted in one vial in assay buffer 50 mM Tris, pH 8.0, 1 mM DTT, 150 mM NaCl, and 0.01% Tween20. Components are pre-incubated for 30 min, then a small volume of reporter probe (Proteros) is added from a highly concentrated stock and incubation is continued for another 30 min. Final concentrations after adding the reporter probe amount to 20 nM HDAC2, 4 nM antibody, and 180 nM probe.
Ten μl/well of pre-formed complex are transferred into 384 well assay plates (Corning). Compounds to be profiled are serially diluted from […] in DMSO and 60 nl are added to assay plates by pintool transfer (CybiWell, Cybio). Fluorescence intensity signal is read after 4 h in a Pherastar FS (BMG Labtech) at 337/665 nm.
For Kd determination, percent probe displacement values are calculated for each compound concentration and plotted against the compound concentration. IC50-like values (corresponding to 50% probe displacement) are calculated using standard fitting algorithms. Since the reporter probe is used at a concentration reflecting its own Kd value, compound Kd values can be calculated according to the Cheng Prusoff equation.
In the table, “A” indicates a Kd value of less than 0.1 μM; “B” a Kd value of between 0.1 μM and 0.5 μM; “C” a Kd value of greater than 0.5 μM and less than or equal to 5.0 μM; and “D” a Kd value of greater than 5.0 μM.

The target in assay [2] is HDAC1 (Homo sapiens (Human), UniProt Q13547). The assay can be described thus: Reporter displacement assay (HDAC1). Particulars: for Kd: reporter probe displacement, Cheng Prusoff. As for the experimental part: [The procedure below names another target; the source lists this target under the same test.] HDAC2 containing a C-terminal HIS-Tag (Proteros) and fluorescently-labeled anti-HIS-antibody are diluted in one vial in assay buffer 50 mM Tris, pH 8.0, 1 mM DTT, 150 mM NaCl, and 0.01% Tween20. Components are pre-incubated for 30 min, then a small volume of reporter probe (Proteros) is added from a highly concentrated stock and incubation is continued for another 30 min.
Chain of HDAC1 (Q13547 whole entry): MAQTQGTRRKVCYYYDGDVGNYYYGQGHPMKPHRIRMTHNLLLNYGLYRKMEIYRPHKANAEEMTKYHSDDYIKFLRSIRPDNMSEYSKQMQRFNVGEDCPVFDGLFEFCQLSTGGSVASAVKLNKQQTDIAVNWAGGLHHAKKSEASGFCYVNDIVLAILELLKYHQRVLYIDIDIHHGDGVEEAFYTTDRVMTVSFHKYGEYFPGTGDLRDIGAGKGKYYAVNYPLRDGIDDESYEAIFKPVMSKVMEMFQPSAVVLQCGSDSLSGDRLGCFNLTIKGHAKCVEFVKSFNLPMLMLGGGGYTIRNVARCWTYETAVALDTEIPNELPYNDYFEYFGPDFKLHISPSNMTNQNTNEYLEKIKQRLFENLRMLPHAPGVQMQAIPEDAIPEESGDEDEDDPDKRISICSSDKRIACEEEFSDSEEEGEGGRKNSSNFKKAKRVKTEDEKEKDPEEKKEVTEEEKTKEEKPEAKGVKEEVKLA
Ten μl/well of pre-formed complex are transferred into 384 well assay plates (Corning). Compounds to be profiled are serially diluted from […] in DMSO and 60 nl are added to assay plates by pintool transfer (CybiWell, Cybio).
For Kd determination, percent probe displacement values are calculated for each compound concentration and plotted against the compound concentration. […] Since the reporter probe is used at a concentration reflecting its own Kd value, compound Kd values can be calculated according to the Cheng Prusoff equation.

Assay [3] deals with T1, HDAC2. Description: Reporter displacement assay (HDAC2).

T1 sequence (Q92769 whole entry): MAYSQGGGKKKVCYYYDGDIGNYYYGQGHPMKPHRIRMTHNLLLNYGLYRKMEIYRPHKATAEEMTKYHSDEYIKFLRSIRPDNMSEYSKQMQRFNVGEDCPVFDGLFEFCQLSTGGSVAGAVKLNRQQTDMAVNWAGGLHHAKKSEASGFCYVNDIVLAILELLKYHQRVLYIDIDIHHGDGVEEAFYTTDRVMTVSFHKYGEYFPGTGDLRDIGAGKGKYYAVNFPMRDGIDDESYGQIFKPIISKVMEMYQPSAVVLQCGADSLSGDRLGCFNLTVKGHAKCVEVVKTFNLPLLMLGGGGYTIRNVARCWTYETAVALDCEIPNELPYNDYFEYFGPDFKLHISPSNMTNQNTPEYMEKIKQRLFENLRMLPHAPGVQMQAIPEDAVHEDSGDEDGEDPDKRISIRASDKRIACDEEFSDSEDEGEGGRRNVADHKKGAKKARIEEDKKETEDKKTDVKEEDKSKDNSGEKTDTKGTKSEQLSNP

Consider `Nc1ccc(-c2ccc(F)c(F)c2)cc1NC(=O)N1Cc2ccncc2C1` [Compound 135], for which the Kd in assay [1] and in assay [2] was 100 to 500 nM each time. For the same molecule, the residence time was determined as 353 min in assay [2] and 1210 min in assay [3].
In the case of `COCCN1CCC2(CCN(C(=O)Nc3cc(-c4ccncc4)ccc3N)CC2)C1` [Compound 136], the Kd in assay [1] was 100 to 500 nM; in assay [2], < 100 nM. For the same molecule, the results for the residence time in assay [2] and in assay [3] were 941 min and 1540 min, respectively.
For `Nc1ccc(-c2ccc(F)c(F)c2)cc1NC(=O)N1Cc2nccnc2C1` [Compound 137], in that order: 100 to 500 nM, 100 to 500 nM, 552 min and 1380 min.
For `COCCN1CCC2(CCN(C(=O)Nc3cc(-c4ccc(F)cc4)ccc3N)CC2)C1` [Compound 138], in that order: 100 to 500 nM, 100 to 500 nM, 724 min and 2370 min.
Take `COc1ccc(-c2ccc(N)c(NC(=O)N3Cc4ccncc4C3)c2)cc1` [Compound 139]: the Kd in assay [1] and in assay [2] was < 100 nM in each case. Besides, the residence time in assay [2] was 1450 min; in assay [3] it was 2260 min.
With `Nc1ccc(-c2ccc(C(F)(F)F)cc2)cc1NC(=O)N1Cc2ccncc2C1` [Compound 140], the Kd in assay [1] and in assay [2] was 500 to 5000 nM throughout. Also, the residence time in assay [2] was found to be 34 min; in assay [3] it was 341 min.
With `Nc1ccc(-c2cc(F)c(F)c(F)c2)cc1NC(=O)N1Cc2ccncc2C1` [Compound 142], the Kd in assay [1] and in assay [2] was 500 to 5000 nM each time. The residence time worked out at 982 min in assay [2] and 1010 min in assay [3].
Consider `Nc1ccc(-c2ccc(F)cc2)cc1NC(=O)N1CCC2(CCN(CCF)C2)CC1` [Compound 143], for which the Kd in assay [1] is 100 to 500 nM; in assay [2], < 100 nM. Besides, the residence time worked out at 1200 min in assay [2] and 1490 min in assay [3].
For `Nc1ccc(-c2ccncc2)cc1NC(=O)N1CCC2(CCN(CCF)C2)CC1` [Compound 144], the dissociation constant Kd in assay [1] and in assay [2] was 500 to 5000 nM each time. Further, the values for the residence time in assay [2] and in assay [3] were 296 min and 1490 min, respectively.
For `Cn1cc(-c2ccc(N)c(NC(=O)N3Cc4ccncc4C3)c2)cn1` [Compound 145], the Kd in assay [1] and in assay [2] was 100 to 500 nM throughout. Also, the residence time in assay [2] came out at 876 min; in assay [3], 1250 min.
Turning to `Nc1ccc(-c2ccccn2)cc1NC(=O)N1Cc2ccncc2C1` [Compound 146], the values for the Kd in assay [1] and in assay [2] were 500 to 5000 nM and 100 to 500 nM, respectively. The residence time amounted to 540 min in assay [2] and 1280 min in assay [3].
For `Nc1ccc(-c2ccc(F)cc2)cc1NC(=O)c1nc2c(s1)CNCC2` [Compound 147], the Kd was 100 to 500 nM in assay [1] and < 100 nM in assay [2]. Also, the residence time amounted to 1340 min in assay [2] and 1620 min in assay [3].
As to `Nc1ccc(-c2ccc(F)cc2)cc1NC(=O)N1CC2(CCOCC2)C1` [Compound 148], the Kd in assay [1] and in assay [2] was 500 to 5000 nM each time. Moreover, the residence time in assay [2] came out at 233 min; in assay [3] it was 809 min.
Regarding `N#Cc1ccc(-c2ccc(N)c(NC(=O)N3Cc4ccncc4C3)c2)cc1` [Compound 149], the Kd in assay [1] and in assay [2] was 100 to 500 nM each time. In addition, the results for the residence time in assay [2] and in assay [3] were 124 min and 573 min, respectively.
With `Nc1ccc(-c2ccc(F)cc2)cc1NC(=O)c1cn2c(n1)CCCC2` [Compound 150], the figures for the Kd in assay [1] and in assay [2] were 500 to 5000 nM and 100 to 500 nM, respectively. Further, the values for the residence time in assay [2] and in assay [3] were 1080 min and 1010 min, respectively.
`Nc1ccc(-c2ccoc2)cc1NC(=O)N1Cc2ccncc2C1` [Compound 151]: the Kd in assay [1] and in assay [2] was < 100 nM in each case. Further, the residence time in assay [2] was found to be 1130 min; in assay [3] it was 6280 min.
Regarding `CNC(=O)N1CCc2nc(C(=O)Nc3cc(-c4ccc(F)cc4)ccc3N)sc2C1` [Compound 152], the Kd in assay [1] and in assay [2] was < 100 nM in each case. Further, the residence time turned out to be 1360 min in assay [2] and 2330 min in assay [3].
For the molecule `Nc1ccc(-c2ccc(F)cc2)cc1NC(=O)N1CC2(CCCCO2)C1` [Compound 153], the figures for the Kd in assay [1] and in assay [2] were 500 to 5000 nM and 100 to 500 nM, respectively. For the same molecule, the residence time in assay [2] worked out at 457 min; in assay [3], 1290 min.
With `COC(=O)N1CC2CN(C(=O)Nc3cc(-c4ccc(F)cc4)ccc3N)CC2C1` (centres unmarked) [Compound 154], the Kd in assay [1] and in assay [2] was 100 to 500 nM in each case. Further, the residence time in assay [2] worked out at 1350 min; in assay [3] it was 1540 min.
On to `CCOC(=O)N1CC2CN(C(=O)Nc3cc(-c4ccc(F)cc4)ccc3N)CC2C1` (centres unmarked) [Compound 155], for which the Kd in assay [1] fell in the range of 500 to 5000 nM; in assay [2] it was 100 to 500 nM. The residence time was 1630 min in assay [2] and 1720 min in assay [3].
Regarding `CC(C)OC(=O)N1CC2CN(C(=O)Nc3cc(-c4ccc(F)cc4)ccc3N)CC2C1` (centres unmarked) [Compound 156], the values for the Kd in assay [1] and in assay [2] were 100 to 500 nM and < 100 nM, respectively. Besides, the residence time in assay [2] is 1200 min; in assay [3], 1800 min.
As for `CC(C)COC(=O)N1CC2CN(C(=O)Nc3cc(-c4ccc(F)cc4)ccc3N)CC2C1` (centres unmarked) [Compound 157], the Kd was 100 to 500 nM in assay [1] and < 100 nM in assay [2]. The residence time turned out to be 838 min in assay [2] and 1360 min in assay [3].
The like results for `Nc1ccc(-c2ccc(F)cc2)cc1NC(=O)N1CC2CN(C(=O)OC3CC3)CC2C1` (centres unmarked) [Compound 158] were, in that order, 100 to 500 nM, < 100 nM, 1220 min and 2140 min.
For `Nc1ccc(-c2ccc(F)cc2)cc1NC(=O)N1CC2CN(C(=O)OC3CCC3)CC2C1` (centres unmarked) [Compound 159], in that order: 100 to 500 nM, < 100 nM, 1060 min and 2640 min.
As to `CC(C)CC(=O)N1CC2CN(C(=O)Nc3cc(-c4ccc(F)cc4)ccc3N)CC2C1` (centres unmarked) [Compound 160], the Kd in assay [1] and in assay [2] was 100 to 500 nM each time. Besides, the figures for the residence time in assay [2] and in assay [3] were 848 min and 1730 min, respectively.
As for `CC(C)(C)OC(=O)N1CCC2(CCN(C(=O)Nc3cc(-c4ccc(F)cc4)ccc3N)CC2)C1` [Compound 161], the Kd in assay [1] is 100 to 500 nM; in assay [2], < 100 nM. Also, the values for the residence time in assay [2] and in assay [3] were 1170 min and 2640 min, respectively.
For `Nc1ccc(-c2ccc(OC(F)F)cc2)cc1NC(=O)N1Cc2ccncc2C1` [Compound 162], in that order: < 100 nM, < 100 nM, 946 min and 1340 min.
The like results for `Nc1ccc(-c2ccc(F)cc2)cc1NC(=O)N1CCC2(CC1)CCN(C1COC1)C2` [Compound 164] were, in that order, 100 to 500 nM, 100 to 500 nM, 1430 min and 2210 min.
On to `Nc1ccc(-c2ccncc2)cc1NC(=O)N1CCC2(CC1)CCN(C1COC1)C2` [Compound 165], for which the Kd lay within 100 to 500 nM in assay [1] and 500 to 5000 nM in assay [2]. Moreover, the residence time worked out at 259 min in assay [2] and 1720 min in assay [3].

The record behind these values is patent US10421756B2, “Heterobicyclic N-aminophenyl-amides as inhibitors of histone deacetylase” (Rodin Therapeutics, Inc., priority 2015, dated 2019).
